Format in all cases: cell-based
In one assay the test system is Enterovirus 6. Description: In vitro CPE assay in mammalian cell culture, EV6. Conditions: viral cytopathic effect in mammalian cell culture, read-out: EV6 inhibition capacity (IC50).
A further assay concerns Enterovirus 30. Description: In vitro CPE assay in mammalian cell culture, EV30. The following applies: viral cytopathic effect in mammalian cell culture, read-out: EV30 inhibition capacity (IC50).
The test system of a further assay is Enterovirus 68. Description: In vitro CPE assay in mammalian cell culture, EV68. The following applies: Enterovirus D, viral cytopathic effect in mammalian cell culture, read-out: EV68 inhibition capacity (IC50).
The next assay has as its system Enterovirus 71. Description: In vitro CPE assay in mammalian cell culture, EV71. Conditions: Enterovirus A, viral cytopathic effect in mammalian cell culture, read-out: EV71 inhibition capacity (IC50).
Another assay concerns coxsackie B1 virus. Description: In vitro CPE assay in mammalian cell culture, B1. The following applies: viral cytopathic effect in mammalian cell culture, read-out: B1 inhibition capacity (IC50).
A further assay has as its system coxsackie B2 virus. Description: In vitro CPE assay in mammalian cell culture, B2. The following applies: viral cytopathic effect in mammalian cell culture, read-out: B2 inhibition capacity (IC50).
Another assay relates to coxsackie B3 virus. Description: In vitro CPE assay in mammalian cell culture, B3. Conditions: Enterovirus B, viral cytopathic effect in mammalian cell culture, read-out: B3 inhibition capacity (IC50).
A further assay deals with coxsackie B4 virus. Description: In vitro CPE assay in mammalian cell culture, B4. Conditions: Enterovirus B, viral cytopathic effect in mammalian cell culture, read-out: B4 inhibition capacity (IC50).
In a further assay the test system is coxsackie B5 virus. Description: In vitro CPE assay in mammalian cell culture, B5. The following applies: viral cytopathic effect in mammalian cell culture, read-out: B5 inhibition capacity (IC50).
The next assay relates to polio virus Sabin 1. Description: organism not typed. The following applies: read-out: Polio 1 inhibition capacity (IC50).

Regarding `Cc1ccc(CNc2cc(C)nc3c(-c4ccc5c(c4)c(C)nn5C)c(C)nn23)cn1` [Example 9, 3-(1,3-dimethyl-1H-indazol-5-yl)-2,5-dimethyl-N-((6-methylpyridin-3-yl)methyl)pyrazolo[1,5-a]pyrimidin-7-amine], the half-inhibitory concentration (IC50) with Enterovirus 6 is less than 1000 nM; in the assay with Enterovirus 30, less than 100 nM; in the assay on Enterovirus 68 it was less than 100 nM; in the assay on Enterovirus 71, less than 100 nM; with coxsackie B1 virus it was less than 10 nM; in the assay on coxsackie B2 virus, less than 10 nM. For the same molecule, the IC50 in the assay on coxsackie B3 virus is less than 10 nM; in the assay with coxsackie B4 virus, less than 100 nM; in the assay with coxsackie B5 virus, less than 100 nM; in the assay on polio virus Sabin 1 it was less than 100 nM.

In the case of `COc1ccc(CNc2cc(C)nn3c(-c4ccc5c(c4)c(C)nn5C)c(C)nc23)cc1` [Example 6, 3-(1,3-dimethyl-1H-indazol-5-yl)-N-(4-methoxybenzyl)-2,6-dimethylimidazo[1,2-b]pyridazin-8-amine], the IC50 with Enterovirus 30, with Enterovirus 68, with coxsackie B1 virus, in the assay with coxsackie B2 virus, with coxsackie B3 virus and in the assay on coxsackie B4 virus was less than 1000 nM throughout. The concentration for half-maximal inhibition (IC50) with coxsackie B5 virus and with polio virus Sabin 1 was less than 1000 nM each time.

In the case of `Cc1cc(NCc2cccs2)c2nc(C)c(-c3ccc4c(c3)c(C)nn4C)n2n1` [Example 5, 3-(1,3-dimethyl-1H-indazol-5-yl)-2,6-dimethyl-N-(thiophen-2-ylmethyl)imidazo[1,2-b]pyridazin-8-amine], the IC50 in the assay with Enterovirus 6 was less than 100 nM; in the assay on Enterovirus 30 it was less than 100 nM; with Enterovirus 68 it was less than 1000 nM; with Enterovirus 71, less than 100 nM; in the assay on coxsackie B1 virus it was less than 1 nM; in the assay with coxsackie B2 virus it was less than 100 nM. Further, the IC50 in the assay on coxsackie B3 virus, with coxsackie B4 virus and in the assay with polio virus Sabin 1 was less than 100 nM throughout.

On to `Cc1cc(NCc2ccc(C(F)(F)F)nc2)n2nc(C)c(-c3ccc4c(c3)c(C)nn4C)c2n1` [Example 17, 3-(1,3-dimethyl-1H-indazol-5-yl)-2,5-dimethyl-N-((6-trifluoromethylpyridin-3-yl)methyl)pyrazolo[1,5-a]pyrimidin-7-amine], for which the IC50 in the assay with Enterovirus 6 is less than 1000 nM; in the assay with Enterovirus 30, less than 1000 nM; in the assay on Enterovirus 71, less than 100 nM; in the assay with coxsackie B2 virus, less than 1000 nM; in the assay with coxsackie B3 virus, less than 1000 nM; with coxsackie B4 virus, less than 1000 nM. Further, the IC50 in the assay on coxsackie B5 virus and with polio virus Sabin 1 was less than 1000 nM throughout.

As for `Cc1cc(NCc2ccc(F)cc2)n2nc(C)c(-c3ccc4c(c3)c(C)nn4C)c2n1` [Example 19, N-(4-fluorobenzyl)-3-(1,3-dimethyl-1H-indazol-5-yl)-2,5-dimethylpyrazolo[1,5-a]pyrimidin-7-amine], the IC50 in the assay on Enterovirus 6 is less than 1000 nM; with Enterovirus 71 it was less than 100 nM; in the assay on coxsackie B2 virus it was less than 1000 nM; in the assay on coxsackie B3 virus it was less than 100 nM; with coxsackie B4 virus, less than 1000 nM; with coxsackie B5 virus, less than 1000 nM. For the same molecule, the IC50 in the assay on polio virus Sabin 1 is less than 1000 nM.

`COc1ccc(CNc2nc(C)nc3c(-c4ccc5c(c4)c(C)nn5C)c(C)nn23)cn1` [Example 28, 8-(1,3-dimethyl-1H-indazol-5-yl)-N-((6-methoxypyridin-3-yl)methyl)-2,7-dimethylpyrazolo[1,5-a][1,3,5]triazin-4-amine]: the IC50 in the assay on Enterovirus 6 is less than 1000 nM; in the assay with Enterovirus 30, less than 100 nM; in the assay on Enterovirus 68, less than 1000 nM; with Enterovirus 71 it was less than 100 nM; in the assay on coxsackie B1 virus it was less than 10 nM; with coxsackie B2 virus, less than 100 nM. The IC50 with coxsackie B3 virus is less than 100 nM; in the assay on coxsackie B4 virus it was less than 100 nM; in the assay with polio virus Sabin 1, less than 1000 nM.

In the case of `COc1ccc(CNc2cc(C)nn3c(-c4ccc5c(c4)c(C)nn5C)c(C)nc23)cn1` [Example 4, 3-(1,3-dimethyl-1H-indazol-5-yl)-N-((6-methoxypyridin-3-yl)methyl)-2,6-dimethylimidazo[1,2-b]pyridazin-8-amine], the IC50 with Enterovirus 6 is less than 1000 nM; in the assay on Enterovirus 30, less than 100 nM; with Enterovirus 68, less than 1000 nM; in the assay on Enterovirus 71, less than 100 nM; in the assay on coxsackie B1 virus, less than 100 nM; in the assay on coxsackie B2 virus it was less than 100 nM. Moreover, the IC50 was less than 100 nM with coxsackie B3 virus, less than 100 nM in the assay on coxsackie B4 virus and less than 1000 nM in the assay with polio virus Sabin 1.

On to `Cc1nc(NCc2ccc(NS(C)(=O)=O)cc2)n2nc(C)c(-c3ccc4c(c3)c(C)nn4C)c2n1` [Example 26, N-(4-(((8-(1,3-dimethyl-1H-indazol-5-yl)-2,7-dimethylpyrazolo[1,5-a][1,3,5]triazin-4-yl)amino)meth-yl)phenyl)methane-sulfonamide], for which the IC50 in the assay on Enterovirus 6 was less than 1000 nM; with Enterovirus 30 it was less than 100 nM; with Enterovirus 68, less than 100 nM; with Enterovirus 71, less than 100 nM; in the assay on coxsackie B1 virus, less than 10 nM; in the assay on coxsackie B2 virus, less than 100 nM. Also, the IC50 was less than 100 nM in the assay with coxsackie B3 virus, less than 100 nM in the assay with coxsackie B4 virus and less than 1000 nM in the assay with polio virus Sabin 1.

Consider `Cc1nc(NCc2cccs2)n2nc(C)c(-c3ccc4c(c3)c(C)nn4C)c2n1` [Example 27, 8-(1,3-dimethyl-1H-indazol-5-yl)-2,7-dimethyl-N-(thiophen-2-ylmethyl)pyrazolo[1,5-a][1,3,5]triazin-4-amine], for which the IC50 was less than 100 nM in the assay with Enterovirus 6; less than 100 nM with Enterovirus 30; less than 100 nM in the assay with Enterovirus 68; less than 100 nM with Enterovirus 71; less than 1 nM in the assay with coxsackie B1 virus; less than 1 nM with coxsackie B2 virus. Also, the IC50 with coxsackie B3 virus is less than 10 nM; with coxsackie B4 virus, less than 1 nM; with polio virus Sabin 1, less than 100 nM.

Consider `Cc1cc(NCc2ccc(Cl)cc2)c2nc(C)c(-c3ccc4c(c3)c(C)nn4C)n2n1` [Example 3, N-(4-chlorobenzyl)-3-(1,3-dimethyl-1H-indazol-5-yl)-2,6-dimethylimidazo[1,2-b]pyridazin-8-amine], for which the IC50 in the assay with Enterovirus 6 was less than 1000 nM; in the assay with Enterovirus 30 it was less than 1000 nM; in the assay on Enterovirus 68, less than 1000 nM; in the assay with Enterovirus 71 it was less than 1000 nM; with coxsackie B1 virus it was less than 100 nM; in the assay on coxsackie B2 virus it was less than 1000 nM. Moreover, the IC50 in the assay on coxsackie B3 virus, in the assay with coxsackie B4 virus and in the assay with polio virus Sabin 1 was less than 1000 nM in each case.

`Cc1cc(NCc2ccccc2)n2nc(C)c(-c3ccc4c(c3)c(C)nn4C)c2n1` [Example 18, N-(benzyl)-3-(1,3-dimethyl-1H-indazol-5-yl)-2,5-dimethylpyrazolo[1,5-a]pyrimidin-7-amine]: the concentration for half-maximal inhibition (IC50) was less than 1000 nM with Enterovirus 6; less than 10 nM in the assay on Enterovirus 71; less than 100 nM with coxsackie B2 virus; less than 100 nM in the assay with coxsackie B3 virus; less than 1000 nM in the assay with coxsackie B4 virus; less than 1000 nM with coxsackie B5 virus. Besides, the IC50 in the assay with polio virus Sabin 1 was less than 100 nM.

With `COc1ccc(CNc2nc(C)nc3c(-c4ccc5c(c4)c(C)nn5C)c(C)nn23)cc1` [Example 21, 8-(1,3-dimethyl-1H-indazol-5-yl)-N-(4-methoxybenzyl)-2,7-dimethylpyrazolo[1,5-a][1,3,5]triazin-4-amine], the IC50 in the assay on Enterovirus 30 is less than 1000 nM; with Enterovirus 68, less than 1000 nM; with Enterovirus 71, less than 100 nM; in the assay with coxsackie B1 virus, less than 1000 nM; with coxsackie B2 virus, less than 1000 nM; with coxsackie B3 virus it was less than 100 nM. Moreover, the figures for the IC50 with coxsackie B4 virus, with coxsackie B5 virus and with polio virus Sabin 1 were less than 1000 nM, less than 1000 nM and less than 10 nM, respectively.

Source of the values: patent US11001587B2, “Substituted indazoles as phosphatidylinositol kinase inhibitors” (CUROVIR AB, priority 2017, dated 2021).
